In PMC11550483 (2024):
Where a SMILES comes first, the peptide text is derived from it.

Target: SARS2 M^pro (Severe acute respiratory syndrome coronavirus 2, UniProt P0DTD1, P3395H)
Assay type: biochemical, SARS-CoV-2

SMILES | % inhibition (20 µM) biochemical [%]
Cc1cccc(NC(=O)COc2ccc(Br)cc2/C=N/O)c1 [MWAC-0001791, Cc1cccc(NC(=O)COc2ccc(Br)cc2\C=N\O)c1] | 0.745
CCOc1ccc(-c2nc(CSc3nnc(N)[nH]3)cs2)cc1 [MWAC-0001853, CCOc1ccc(cc1)c2nc(CSc3nnc(N)[nH]3)cs2] | 1.25
O=C(CC1(O)C(=O)Nc2ccc(I)cc21)c1cccs1 (centres unmarked) [MWAC-0001763, OC1(CC(=O)c2cccs2)C(=O)Nc3ccc(I)cc13] | 6.56
COc1cccc(NC(=O)Cn2c(=O)n(C)c(=O)n(-c3ccc(Oc4ccc(SC(F)(F)F)cc4)c(C)c3)c2=O)c1 [MWAC-0001087, COc1cccc(NC(=O)CN2C(=O)N(C)C(=O)N(C2=O)c3ccc(Oc4ccc(SC(F)(F)F)cc4)c(C)c3)c1] | 3
CCc1cc2c3c(c1)C1(C(=O)N3C(C)(C)C=C2C)C(C#N)=C(N)Oc2[nH]c(=O)[nH]c(=O)c21 (centres unmarked) [MWAC-0001786, CCc1cc2C(=CC(C)(C)N3C(=O)C4(C(=C(N)OC5=C4C(=O)NC(=O)N5)C#N)c(c1)c23)C] | 4
O=C1CSC(=S)N1Cc1cccnc1 [MWAC-0001797, O=C1CSC(=S)N1Cc2cccnc2] | 7
Cc1ccc(COc2ccc([N+](=O)[O-])cc2C=O)cc1 [MWAC-0001790, Cc1ccc(COc2ccc(cc2C=O)[N+](=O)[O-])cc1] | 7
CCOC(=O)c1ccc(NC(=O)N2CCc3ccccc32)cc1 [MWAC-0001787, CCOC(=O)c1ccc(NC(=O)N2CCc3ccccc23)cc1] | 3.21
C#CCN1C(=O)C(O)(CC(=O)c2ccc(Cl)cc2)c2ccccc21 (centres unmarked) [MWAC-0001731, OC1(CC(=O)c2ccc(Cl)cc2)C(=O)N(CC#C)c3ccccc13] | 5
O=Cc1cc(Cl)ccc1OCC(=O)Nc1ccc(F)cc1 [MWAC-0001783, Fc1ccc(NC(=O)COc2ccc(Cl)cc2C=O)cc1] | 4
CCC(=O)OCC(=O)NCc1ccc2c(c1)OCO2 [MWAC-0001887, CCC(=O)OCC(=O)NCc1ccc2OCOc2c1] | 0
COc1ccccc1N1CCN(C(=O)CCl)CC1 [MWAC-0001823, COc1ccccc1N2CCN(CC2)C(=O)CCl] | 98
CC(=O)Nc1cccc(-c2nc3cc(Cl)ccc3o2)c1 [MWAC-0001758, CC(=O)Nc1cccc(c1)c2oc3ccc(Cl)cc3n2] | 14
Cc1ccc2nc(-c3ccc(NC(=O)CCOc4ccccc4)cc3)sc2c1 [MWAC-0001713, Cc1ccc2nc(sc2c1)c3ccc(NC(=O)CCOc4ccccc4)cc3] | 14
O=C1/C(=C/c2ccc(F)cc2)SC(=S)N1Cc1cccnc1 [MWAC-0001802, Fc1ccc(\C=C\2/SC(=S)N(Cc3cccnc3)C2=O)cc1] | 7
O=C(CCl)NCCOc1ccccc1 [MWAC-0001864, ClCC(=O)NCCOc1ccccc1] | 58
CC(=O)N(/N=C1\Sc2ccccc2C1=O)c1ccccc1C [MWAC-0001741, CC(=O)N(\N=C\1/Sc2ccccc2C1=O)c3ccccc3C] | 36
CC1=CC(C)(C)N2C(=O)C3(Nc4ccccc4CO3)c3cc(C)cc1c32 (centres unmarked) [MWAC-0001770, CC1=CC(C)(C)N2C(=O)C3(Nc4ccccc4CO3)c5cc(C)cc1c25] | 0.845
CCc1cccc2c(/C=C3\C(=O)Nc4ccccc43)c[nH]c12 [MWAC-0001851, CCc1cccc2c(\C=C\3/C(=O)Nc4ccccc34)c[nH]c12] | 2.36

SMILES | % inhibition (20 µM) biochemical [%]
O=C(Nc1ccccc1O)c1ccc(Cl)c([N+](=O)[O-])c1 [MWAC-0001814, Oc1ccccc1NC(=O)c2ccc(Cl)c(c2)[N+](=O)[O-]] | 2.59
Nc1ncnc(N)c1N=Nc1ccccc1 [MWAC-0001835, Nc1ncnc(N)c1N=Nc2ccccc2] | 6.65
O=C1/C(=C/c2cccnc2)SC(=S)N1Cc1cccnc1 [MWAC-0001816, O=C1N(Cc2cccnc2)C(=S)S/C/1=C\c3cccnc3] | 43
CC(C)(C)N1C(=O)c2ccc(C(=O)Nc3cccc(O)c3)cc2C1=O [MWAC-0001722, CC(C)(C)N1C(=O)c2ccc(cc2C1=O)C(=O)Nc3cccc(O)c3] | 5.66
Cc1cc(=O)oc2c(C)c(OCc3ccccc3)ccc12 [MWAC-0001732, CC1=CC(=O)Oc2c(C)c(OCc3ccccc3)ccc12] | 7
COc1ccc(-c2nnc(SCc3ccc4c(c3)OCO4)n2-c2ccccc2)cc1 [MWAC-0001881, COc1ccc(cc1)c2nnc(SCc3ccc4OCOc4c3)n2c5ccccc5] | 0
CN1C(=O)C(O)(CC(=O)c2ccco2)c2cc(Cl)ccc21 (centres unmarked) [MWAC-0001773, CN1C(=O)C(O)(CC(=O)c2occc2)c3cc(Cl)ccc13] | 0.63
CSCCC(C=O)NC(=O)C(CC(C)C)NC(=O)C(CC(C)C)NC(C)=O (stereo not drawn) [MWAC-0001889, CSCCC(NC(=O)C(CC(C)C)NC(=O)C(CC(C)C)NC(=O)C)C=O] (Ac-Leu-Leu-Met-aldehyde; configuration not given here) | 99
O=[N+]([O-])c1cc(C(F)(F)F)ccc1NCCNS(=O)(=O)Cc1ccccc1 [MWAC-0001800, [O-][N+](=O)c1cc(ccc1NCCNS(=O)(=O)Cc2ccccc2)C(F)(F)F] | 3.51
Cc1c(C(=O)N2CCCCC2C)sc2nc(-c3ccc(F)cc3)cn12 (centres unmarked) [MWAC-0001747, CC1CCCCN1C(=O)c2sc3nc(cn3c2C)c4ccc(F)cc4] | 5.44
O=C(C[S+]([O-])c1ccc(C(F)(F)F)cc1[N+](=O)[O-])OCc1ccccc1 (centres unmarked) [MWAC-0001780, [O-][N+](=O)c1cc(ccc1S(=O)CC(=O)OCc2ccccc2)C(F)(F)F] | 4
Cc1ccccc1-c1noc(-c2ccc(O)cc2)n1 [MWAC-0001749, Cc1ccccc1c2noc(n2)c3ccc(O)cc3] | 9
O=S(=O)(O)CCCN1/C(=C/C=C2\CCC(/C=C/c3sc4ccccc4[n+]3CCCS(=O)(=O)O)=C2N(c2ccccc2)c2ccccc2)Sc2ccccc21 [MWAC-0001204, OS(=O)(=O)CCCN1\C(=C\C=C\2/CCC(=C2N(c3ccccc3)c4ccccc4)\C=C\c5sc6ccccc6[n+]5CCCS(=O)(=O)O)\Sc7ccccc17] | 8
COc1cccc(-c2cc(C(=O)N3CCCCC3C)no2)c1 (centres unmarked) [MWAC-0001739, COc1cccc(c1)c2onc(c2)C(=O)N3CCCCC3C] | 2.35
COC(=O)CSC1=C(C#N)C(c2ccccc2OC)CC(=O)N1 (centres unmarked) [MWAC-0001735, COC(=O)CSC1=C(C#N)C(CC(=O)N1)c2ccccc2OC] | 4.32
CCOC(=O)c1c(NC(=O)CCl)sc2c1CC(C)(C)NC2(C)C [MWAC-0001854, CCOC(=O)c1c(NC(=O)CCl)sc2c1CC(C)(C)NC2(C)C] | 98
CCOC(=O)c1ccc(NC(=O)CSc2nnc(-c3ccccc3OCC)o2)cc1 [MWAC-0001774, CCOC(=O)c1ccc(NC(=O)CSc2oc(nn2)c3ccccc3OCC)cc1] | 5.5
CCOc1ccccc1OCC(=O)N/N=C/c1cc(C)ccc1O [MWAC-0001844, CCOc1ccccc1OCC(=O)N\N=C\c2cc(C)ccc2O] | 21
Nc1c(C(=O)c2ccccc2)sc2nc(C3CC3)cc(-c3ccco3)c12 [MWAC-0001875, Nc1c(sc2nc(cc(c3occc3)c12)C4CC4)C(=O)c5ccccc5] | 0
